Data as given in patent US4788217A, “Pesticidal carbamates” (priority 1984, dated 1988).
Read-outs that look alike come from different tables or passages of the source.

Key:
[1] = tested on: bean beetle (Acanthoscalides obtectus); assay: Pesticidal effect on bean beetle, treated filter paper discs (Example 15, Table I); type: in vivo; conditions: 24 hours, killed and paralysed
Protocol: From the compounds of the present invention a series of dilution is prepared in acetone; concentration 1, 0.2, 0.04, 0.008 and 0.0016%, respectively. The solutions thus obtained (0.5 ml) are poured dropwise onto Whatman No. 1. filter paper discs (diameter 90 mm) placed in Petri-dishes. After the solvent has evaporated 1-2 weeks' old bean beetle (Acanthoscalides obtectus) images are placed into the Petri-dishes. 3 replicates (10-15 insects each) are used for each concentration. The pesticidal effect of the test compounds is evaluated after 24 hours, on the basis of the percental ratio of the killed and paralysed individuals.

[2] = tested on: house fly (Musca domestica); assay: Insecticidal activity on house fly, treated filter paper discs (Example 16, Table II); type: in vivo; parameters: mortality: concentration or dose not given beside the values
Protocol: From the test compounds a series of dilution disclosed in Example 15 is prepared whereupon 3-5 days' old house fly (Musca domestica) images being under slight carbon dioxide narcosis are placed onto the infected treated filter paper discs. Three replicates ([…] each) are used for each concentration. The insecticidal activity of the test compounds and that of the referent compounds is evaluated after 24 hours on the basis of the percental ratio of the killed and paralyzed flies. In the solvent control grop there was no mortality.

[3] = tested on: small American flour-beetle (Tribolium confusum) larvae; assay: Insecticidal effect on flour-beetle larvae, application onto dorsal cuticulum (Example 17, Table III); conditions: topical, 96 h
Protocol: From the 2,3-dihydro-2,2-dimethyl-7-benzofuranyl-N-methyl-N-(N'-morpholinomethyl)-carbamate, dioxacarb and carbofuran series of dilutions are prepared in acetone: the active ingredient content of the solutions amounts to 40.5, 13.5, 4.5, 1.5, 0.5, 0.16 and 0.05 […] per […], respectively. The solutions (0.5 μl) are applied with the aid of a Hamilton syringe onto the dorsal cuticulum of small American flour-beetle (Tribolium confusum) of L6 larva stage. The age of the larvae is determined on the basis of the average larva weight (=1.81±0.37 mg/larva) See Sokoloff 1972.
Two replicates are used for each concentration (10 individuals per replicate). The insecticidal effect of the test compounds is evaluated after 96 hours on the basis of the percental ratio of killed larvae.

[4] = in vivo; parameters: species or system rats; conditions: rat, po
Source text: The acute toxicity data (p.o.) of the test compounds are disclosed in Table IV.

[5] = tested on: house fly (Musca domestica); assay: whole plant or invertebrate; type: in vivo
Protocol: From the compound according to Example 1 a series of dilution is prepared in acetone; concentration: 0.6, 0.2, 0.067 and 0.022% by weight, respectively. From these solutions 0.5 ml each is poured dropwise onto Whatman No. 1 filter paper discs (diameter 90 mm) placed in Petri-dishes. The discs were previously treated with 0.5 ml of a 0.04% piperonyl butoxide solution. After the evaporation of the acetone 3-5 days' old house fly (Musca domestica) imagos being under slight carbon dioxide narcosis are placed onto the filter paper discs. The test is evaluated as described in Example 16.

[6] = tested on: rats; conditions: p.o.; cited from earlier work
[7] = concentration of active ingredient 0.0016%
[8] = concentration of active ingredient 0.008%
[9] = concentration of active ingredient 0.04%
[10] = concentration of active ingredient 0.2%
[11] = concentration of active ingredient 1%
[12] = female rats, p.o., read-out: acute toxicity (p.o.) on female rats
[13] = male rats, p.o., read-out: acute toxicity (p.o.) on male rats

Compound	mortality % [1, 7] [%]	mortality % [1, 8] [%]	mortality % [1, 9] [%]	mortality % [1, 10] [%]	mortality % [1, 11] [%]	mortality at 0.03 µg/larva [3] [%]	mortality at 0.16 µg/larva [3] [%]	mortality at 0.5 µg/larva [3] [%]	mortality at 1.5 µg/larva [3] [%]	mortality at 4.5 µg/larva [3] [%]	mortality at 13 µg/larva [3] [%]	mortality at 40.5 µg/larva [3] [%]	mortality at 0.0016 % ([2]; 24 h) [%]	mortality at 0.04 % ([2]; 24 h) [%]	mortality at 0.08 % ([2]; 24 h) [%]	mortality at 0.2 % ([2]; 24 h) [%]	mortality at 1 % ([2]; 24 h) [%]	LD50 [4, 12] [mg/kg]	LD50 [4, 13] [mg/kg]	also measured
CNC(=O)Oc1cccc2c1OC(C)(C)C2 [Carbofuran, 2,3-dihydro-2,2-dimethyl-benzofurane-7-yl-methyl-carbamate, reference compound]	0	93	100	100	100	30	70	100	100	100	100	100	–	–	–	–	–	–	–	mortality ([2]; 24 hours, killed and paralyzed): 53%; mortality at 0.0016 % ([2]; concentration of active ingredient 0.0016%, 24 hours, killed and paralyzed, read-out: mortality %): 43%; mortality at 0.04 % ([2]; concentration of active ingredient 0.04%, 24 hours, killed and paralyzed, read-out: mortality %): 67%; mortality at 0.2 % ([2]; concentration of active ingredient 0.2%, 24 hours, killed and paralyzed, read-out: mortality %): 100%; mortality at 1 % ([2]; concentration of active ingredient 1%, 24 hours, killed and paralyzed, read-out: mortality %): 100%; LD50 ([4]; acute toxicity (p.o.) on male rats): 8 to 14 mg/kg; mortality at 0.022 % ([5]; concentration of active ingredient 0.022%, evaluated as Example 16 (24 hours), read-out: mortality %): 71%; mortality at 0.067 % ([5]; concentration of active ingredient 0.067%, evaluated as Example 16 (24 hours), read-out: mortality %): 100%; mortality at 0.2 % ([5]; concentration of active ingredient 0.2%, evaluated as Example 16 (24 hours), read-out: mortality %): 100%; mortality at 0.6 % ([5]; concentration of active ingredient 0.6%, evaluated as Example 16 (24 hours), read-out: mortality %): 100%; acute toxicity LD50 [6]: 8 to 10 mg/kg
CNC(=O)Oc1ccccc1C1OCCO1 [Dioxacarb, reference compound]	0	30	43	93	100	25	40	45	50	50	55	80	0	17	10	90	100	–	–	–
CN(CN1CCOCC1)C(=O)Oc1cccc2c1OC(C)(C)C2 [Example 1, 2,3-dihydro-2,2-dimethyl-7-benzofuranyl-N-methyl-N-(N'-morpholinyl-methyl)-carbamate]	0	50	87	97	100	75	80	90	90	95	100	100	30	43	40	80	100	50	50	mortality at 0.022 % ([5]; 24 h): 32%; mortality at 0.067 % ([5]; 24 h): 78%; mortality at 0.2 % ([5]; 24 h): 100%; mortality at 0.6 % ([5]; 24 h): 100%
CC(C)NCN(C)C(=O)Oc1cccc2c1OC(C)(C)C2 [Example 2, 2,3-dihydro-2,2-dimethyl-7-benzofuranyl-N-methyl-N-/isopropyl-amino-methyl/-carbamate]	0	40	60	100	100	–	–	–	–	–	–	–	0	30	10	67	90	–	–	–
CCOC(=O)CCN(CN(C)C(=O)Oc1cccc2c1OC(C)(C)C2)C(C)C [Example 3, 2,3-dihydro-2,2-dimethyl-7-benzofuranyl-N-methyl-N-[(N'-isopropyl)-N'-(β-carbethoxy-ethyl)-amino-methyl]-carbamate]	0	27	53	80	97	–	–	–	–	–	–	–	0	40	33	70	97	31.8	23.3	–
COc1ccc(CCNCN(C)C(=O)Oc2cccc3c2OC(C)(C)C3)cc1OC [Example 4, 2,3-dihydro-2,2-dimethyl-7-benzofuranyl-N-methyl-N-[3,4-(dimethoxy)-phenylethyl]-amino-methyl-carbamate]	0	37	70	87	100	–	–	–	–	–	–	–	0	37	20	83	100	–	–	–
